From ChEMBL document CHEMBL1139248 (Bioorg Med Chem Lett, 2009)

Tests used:
[1] = biological target: T1, Calcitonin gene-related peptide type 1 receptor (Homo sapiens, UniProt O60894+Q16602); experiment: biochemical; type: cell-based, HEK293
Description: Displacement of [125I]hCGRP from human CGRP receptor expressed in HEK293 cells coexpressing RAMP1

[2] = biological target: T1, Calcitonin gene-related peptide type 1 receptor; type: functional, cell-based, HEK293
[3] = biological target: T1, Calcitonin gene-related peptide type 1 receptor; experiment: Antagonistic activity at human CGRP receptor expressed in HEK293 cells coexpressing RAMP1 assessed as inhibition of CGRP-induced cAMP production; type: functional, cell-based

T1 sequence (Q16602 whole entry, one chain of several): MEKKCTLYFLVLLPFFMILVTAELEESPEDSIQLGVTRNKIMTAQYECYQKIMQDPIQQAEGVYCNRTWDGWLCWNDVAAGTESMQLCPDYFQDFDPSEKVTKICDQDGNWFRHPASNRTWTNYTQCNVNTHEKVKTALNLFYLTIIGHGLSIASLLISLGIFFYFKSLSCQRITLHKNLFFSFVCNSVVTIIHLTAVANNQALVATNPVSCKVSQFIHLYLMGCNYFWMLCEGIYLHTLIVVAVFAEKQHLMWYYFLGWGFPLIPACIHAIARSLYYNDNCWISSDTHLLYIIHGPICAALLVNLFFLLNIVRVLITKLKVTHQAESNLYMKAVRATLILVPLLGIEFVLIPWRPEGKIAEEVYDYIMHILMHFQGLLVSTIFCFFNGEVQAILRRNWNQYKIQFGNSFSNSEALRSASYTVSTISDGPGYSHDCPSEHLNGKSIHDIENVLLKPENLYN

O=C(Cn1c(=O)n2c3c(cccc31)NC(=O)C2)Nc1ccc2c(c1)C[C@]1(C2)C(=O)Nc2ncccc21
Ki [1]: 0.04 nM
IC50 [2]: 0.62 nM
IC50 [3]: 0.28 nM

Cc1cc(C)c2c(c1)n(CC(=O)Nc1ccc3c(c1)C[C@]1(C3)C(=O)Nc3ncccc31)c(=O)n2CC(=O)N(C)C
Ki [1]: 0.21 nM
IC50 [2]: 4.1 nM
IC50 [3]: 0.87 nM

O=C(Cn1c(=O)n(-c2ccccn2)c2ccccc21)Nc1ccc2c(c1)C[C@]1(C2)C(=O)Nc2ncccc21
Ki [1]: 2.3 nM
IC50 [2]: 420 nM
IC50 [3]: 8.6 nM

O=C(N[C@@H]1N=C(c2ccccc2)c2ccccc2N(CC(F)(F)F)C1=O)N1CCC(n2c(=O)[nH]c3ncccc32)CC1
Ki [1]: 22 nM
IC50 [2]: 730 nM

O=C(Cn1c(=O)n(-c2ccccn2)c2ccccc21)Nc1ccc2c(c1)CC1(C2)C(=O)Nc2ccccc21 (centres undefined)
Ki [1]: 520 nM

O=C(N[C@@H]1N=C(c2ccccc2)c2ccccc2N(CC(F)(F)F)C1=O)N1CCC(n2c(=O)[nH]c3ccccc32)CC1
Ki [1]: 2200 nM

O=C(Cn1c(=O)n(C2CCSCC2)c2ccccc21)Nc1ccc2c(c1)C[C@]1(C2)C(=O)Nc2ncccc21
Ki [1]: 0.87 nM
IC50 [2]: 24 nM
IC50 [3]: 2.5 nM

CN1C(=O)NC(=O)[C@]12Cc1ccc(NC(=O)Cn3c(=O)n(C4CCSCC4)c4ccccc43)cc1C2
Ki [1]: 13 nM
IC50 [2]: 220 nM
IC50 [3]: 27 nM

O=C(Cn1c(=O)n(-c2ccccn2)c2ccccc21)Nc1ccc2c(c1)CC1(C2)C(=O)Nc2ncccc21 (centres undefined)
Ki [1]: 3.7 nM

O=C(Cn1c(=O)n(-c2ccccn2)c2ccccc21)Nc1ccc2c(c1)C[C@@]1(C2)N=C(c2cccnc2)NC1=O
Ki [1]: 130 nM

O=C1CN(C2CCN(C(=O)N[C@@H]3N=C(c4ccccc4)c4ccccc4N(CC(F)(F)F)C3=O)CC2)C(=O)N1
Ki [1]: 520 nM

O=C(Cn1c(=O)n(-c2ccccn2)c2ccccc21)Nc1ccc2c(c1)C[C@@]1(C2)N=C(c2ccccc2)NC1=O
Ki [1]: 34 nM

O=C(Cn1c(=O)n(-c2ccncn2)c2ccccc21)Nc1ccc2c(c1)C[C@]1(C2)C(=O)Nc2ncccc21
Ki [1]: 0.61 nM
IC50 [2]: 35 nM
IC50 [3]: 1.6 nM

O=C(CN1C(=O)C2(CCOCC2)c2ccccc21)Nc1ccc2c(c1)C[C@]1(C2)C(=O)Nc2ncccc21
Ki [1]: 1.7 nM
IC50 [2]: 39 nM
IC50 [3]: 5.7 nM

CN1C(=O)NC(=O)[C@]12Cc1ccc(NC(=O)Cn3c(=O)n(-c4ccncn4)c4ccccc43)cc1C2
Ki [1]: 16 nM
IC50 [2]: 74 nM
IC50 [3]: 10 nM

O=C(Cn1c(=O)n(-c2ccccn2)c2ccccc21)Nc1ccc2c(c1)C[C@@]1(C2)NC(=O)NC1=O
Ki [1]: 230 nM

O=C(Cn1c(=O)n(C2CCOC2)c2ccccc21)Nc1ccc2c(c1)C[C@]1(C2)C(=O)Nc2ncccc21 (some centres undefined)
Ki [1]: 1.2 nM
IC50 [2]: 27 nM
IC50 [3]: 5.2 nM

O=C(Cn1c(=O)n(-c2ccccn2)c2ccccc21)Nc1ccc2c(c1)C[C@@]1(C2)N=C(C2CC2)NC1=O
Ki [1]: 2600 nM

CN1C(=O)NC(=O)[C@]12Cc1ccc(NC(=O)Cn3c(=O)n(C4CCOC4)c4ccccc43)cc1C2 (some centres undefined)
IC50 [2]: 170 nM

O=C(Cn1c(=O)n(-c2ccccn2)c2ccccc21)Nc1ccc2c(c1)CC1(CCCNC1=O)C2 (centres undefined)
Ki [1]: 2700 nM

O=C(Cn1c(=O)n(-c2ccccn2)c2ccccc21)Nc1ccc2c(c1)CC1(CCNC1=O)C2 (centres undefined)
Ki [1]: 270 nM

CN1C(=O)NC(=O)[C@]12Cc1ccc(NC(=O)CN3C(=O)C4(CCOCC4)c4ccccc43)cc1C2
Ki [1]: 35 nM
IC50 [2]: 160 nM
IC50 [3]: 57 nM

O=C1CC2(Cc3ccc(NC(=O)Cn4c(=O)n(-c5ccccn5)c5ccccc54)cc3C2)C(=O)N1 (centres undefined)
Ki [1]: 96 nM
